Test results as given in patent US20150284375A1 (AJINOMOTO CO., INC., priority 2012, published 2015).

What follows are compounds tested against T1, human TRPA1 (Homo sapiens, UniProt O75762) (assay: Measurement of TRPA1 antagonist activity (intracellular calcium increase, FLIPR, allylisothiocyanate stimulation)). Conditions: allylisothiocyanate 20 μM stimulation, FLIPR calcium assay; read-out: antagonism hTRPA1.
T1 construct: expressed in transfected cells; host or cells: Human embryonic kidney-derived 293T cells, transiently transfected with the pcDNA3.1/zeo(+) human TRPA1 plasmid
Format: cell-based
In short: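 IC50 derives from a sigmoid fit of inhibition of the 5-min FLIPR fluorescence change evoked by 20 μM allylisothiocyanate, normalized between agonist and buffer responses. Test substance, diluted in HBSS/20 mM HEPES pH 7.2 plus 0.1% BSA, was applied 10 min beforehand at room temperature to Calcium4-loaded 293T cells transiently expressing human TRPA1.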

T1 sequence (O75762 whole entry): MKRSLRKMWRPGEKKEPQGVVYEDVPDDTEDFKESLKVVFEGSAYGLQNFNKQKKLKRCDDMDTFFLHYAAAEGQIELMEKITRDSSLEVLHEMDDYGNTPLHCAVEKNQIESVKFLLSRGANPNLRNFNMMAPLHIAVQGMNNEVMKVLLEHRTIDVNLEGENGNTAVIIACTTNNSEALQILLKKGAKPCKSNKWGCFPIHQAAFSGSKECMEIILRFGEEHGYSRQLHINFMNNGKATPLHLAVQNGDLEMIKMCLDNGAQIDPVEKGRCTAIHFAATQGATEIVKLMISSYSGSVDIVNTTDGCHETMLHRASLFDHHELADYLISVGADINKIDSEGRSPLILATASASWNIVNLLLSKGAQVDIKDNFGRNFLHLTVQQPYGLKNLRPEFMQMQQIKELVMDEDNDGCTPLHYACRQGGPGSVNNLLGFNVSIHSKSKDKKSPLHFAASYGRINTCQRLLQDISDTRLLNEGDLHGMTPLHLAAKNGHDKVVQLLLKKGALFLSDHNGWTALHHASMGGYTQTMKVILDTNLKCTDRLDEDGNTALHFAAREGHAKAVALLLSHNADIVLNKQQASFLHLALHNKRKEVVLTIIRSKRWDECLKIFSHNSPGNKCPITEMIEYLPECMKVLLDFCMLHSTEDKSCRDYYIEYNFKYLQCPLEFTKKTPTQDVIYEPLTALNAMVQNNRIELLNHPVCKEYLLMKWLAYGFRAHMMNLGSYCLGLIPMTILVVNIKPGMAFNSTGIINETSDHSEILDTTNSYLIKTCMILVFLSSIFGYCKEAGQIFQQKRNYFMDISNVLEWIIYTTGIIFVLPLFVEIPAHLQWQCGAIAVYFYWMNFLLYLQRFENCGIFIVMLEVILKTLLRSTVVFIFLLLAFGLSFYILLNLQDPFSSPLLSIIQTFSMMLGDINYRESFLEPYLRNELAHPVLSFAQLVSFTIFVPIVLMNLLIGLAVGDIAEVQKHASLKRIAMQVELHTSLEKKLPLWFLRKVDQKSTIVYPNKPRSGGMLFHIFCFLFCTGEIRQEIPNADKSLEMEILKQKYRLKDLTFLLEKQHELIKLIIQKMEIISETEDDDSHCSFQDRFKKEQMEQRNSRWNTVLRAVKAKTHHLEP

| IC50 [nM] | Structure (SMILES) |
| --- | --- |
| 640 | COc1ccc(S(=O)(=O)N2CCC[C@H]2C(=O)NCc2cccc(OCc3ccc(C(F)(F)F)cc3)c2)cc1 [Example 196, (2S)-1-(4-methoxyphenyl)sulfonyl-N-[[3-[[4-(trifluoromethyl)phenyl]methoxy]phenyl]methyl]pyrrolidine-2-carboxamide] |
| 1700 | COc1cccc(S(=O)(=O)N2CCC[C@H]2C(=O)NCc2cccc(OCc3ccc(C(F)(F)F)cc3)c2)c1 [Example 197, (2S)-1-(3-methoxyphenyl)sulfonyl-N-[[3-[[4-(trifluoromethyl)phenyl]methoxy]phenyl]methyl]pyrrolidine-2-carboxamide] |
| 3900 | COc1ccccc1S(=O)(=O)N1CCC[C@H]1C(=O)NCc1cccc(OCc2ccc(C(F)(F)F)cc2)c1 [Example 198, (2S)-1-(2-methoxyphenyl)sulfonyl-N-[[3-[[4-(trifluoromethyl)phenyl]methoxy]phenyl]methyl]pyrrolidine-2-carboxamide] |
| 2200 | O=C(NCc1cccc(OCc2ccc(C(F)(F)F)cc2)c1)[C@@H]1CCCN1S(=O)(=O)c1ccc(OC(F)F)cc1 [Example 199, (2S)-1-[4-(difluoromethoxy)phenyl]sulfonyl-N-[[3-[[4-(trifluoromethyl)phenyl]methoxy]phenyl]methyl]pyrrolidine-2-carboxamide] |
| 60 | O=C(NCc1cccc(OCc2ccc(C(F)(F)F)cc2)c1)[C@@H]1CCCN1S(=O)(=O)c1cccs1 [Example 200, (2S)-1-(2-thienylsulfonyl)-N-[[3-[[4-(trifluoromethyl)phenyl]methoxy]phenyl]methyl]pyrrolidine-2-carboxamide] |
| 120 | O=C(NCc1cccc(OCc2ccc(C(F)(F)F)cc2)c1)[C@@H]1CCCN1S(=O)(=O)c1cccnc1 [Example 201, (2S)-1-(3-pyridylsulfonyl)-N-[[3-[[4-(trifluoromethyl)phenyl]methoxy]phenyl]methyl]pyrrolidine-2-carboxamide] |
| 400 | O=C(NCc1cccc(OCc2ccc(C(F)(F)F)cc2)c1)[C@@H]1CCCN1S(=O)(=O)c1ccccn1 [Example 202, (2S)-1-(2-pyridylsulfonyl)-N-[[3-[[4-(trifluoromethyl)phenyl]methoxy]phenyl]methyl]pyrrolidine-2-carboxamide] |
| 170 | Cc1ccc(S(=O)(=O)N2CCC[C@H]2C(=O)NCc2cccc(OCc3ccc(C(F)(F)F)cc3)c2)o1 [Example 203, (2S)-1-[(5-methyl-2-foryl)sulfonyl]-N-[[3-[[4-(trifluoromethyl)phenyl]methoxy]phenyl]methyl]pyrrolidine-2-carboxamide] |
| 1000 | Cc1sccc1S(=O)(=O)N1CCC[C@H]1C(=O)NCc1cccc(OCc2ccc(C(F)(F)F)cc2)c1 [Example 204, (2S)-1-[(2-methyl-3-thienyl)sulfonyl]-N-[[3-[[4-(trifluoromethyl)phenyl]methoxy]phenyl]methyl]pyrrolidine-2-carboxamide] |
| 280 | O=C(NCc1cccc(OCc2ccc(C(F)(F)F)cc2)c1)[C@@H]1CCCN1S(=O)(=O)c1cnn(C(F)F)c1 [Example 205, (2S)-1-[1-(difluoromethyl)pyrazol-4-yl]sulfonyl-N-[[3-[[4-(trifluoromethyl)phenyl]methoxy]phenyl]methyl]pyrrolidine-2-carboxamide] |
| 290 | O=C(NCc1cccc(OCc2ccc(C(F)(F)F)cc2)c1)[C@@H]1CCCN1S(=O)(=O)c1cnc2ccccc2c1 [Example 206, (2S)-1-(3-quinolylsulfonyl)-N-[[3-[[4-(trifluoromethyl)phenyl]methoxy]phenyl]methyl]pyrrolidine-2-carboxamide] |
| 1200 | O=C(NCc1cccc(OCc2ccc(C(F)(F)F)cc2)c1)[C@@H]1CCCN1S(=O)(=O)c1ccc2ncccc2c1 [Example 207, (2S)-1-(6-quinolylsulfonyl)-N-[[3-[[4-(trifluoromethyl)phenyl]methoxy]phenyl]methyl]pyrrolidine-2-carboxamide] |
| 87 | O=C(NCc1cccc(OCc2ccc(C(F)(F)F)cc2)c1)[C@@H]1CCCN1S(=O)(=O)c1cc2ccccc2s1 [Example 208, (2S)-1-(benzothiophen-2-ylsulfonyl)-N-[[3-[[4-(trifluoromethyl)phenyl]methoxy]phenyl]methyl]pyrrolidine-2-carboxamide] |
| 2900 | O=C(NCc1cccc(OCc2ccc(C(F)(F)F)cc2)c1)[C@@H]1CCCN1S(=O)(=O)c1ccc2ncsc2c1 [Example 209, (2S)-1-(1,3-benzothiazol-6-ylsulfonyl)-N-[[3-[[4-(trifluoromethyl)phenyl]methoxy]phenyl]methyl]pyrrolidine-2-carboxamide] |
| 150 | O=C(NCc1cccc(OCc2ccc(C(F)(F)F)cc2)c1)[C@@H]1CCCN1S(=O)(=O)c1ccc2nsnc2c1 [Example 210, (2S)-1-(2,1,3-benzothiadiazol-5-ylsulfonyl)-N-[[3-[[4-(trifluoromethyl)phenyl]methoxy]phenyl]methyl]pyrrolidine-2-carboxamide] |
| 5500 | O=C(NCc1cccc(OCc2ccc(C(F)(F)F)cc2)c1)[C@@H]1CCCN1S(=O)(=O)c1cccc2nsnc12 [Example 211, (2S)-1-(2,1,3-benzothiadiazol-4-ylsulfonyl)-N-[[3-[[4-(trifluoromethyl)phenyl]methoxy]phenyl]methyl]pyrrolidine-2-carboxamide] |
| 6200 | O=C(NCc1cccc(OCc2ccc(C(F)(F)F)cc2)c1)[C@@H]1CCCN1S(=O)(=O)c1cccc2nonc12 [Example 212, (2S)-1-(2,1,3-benzoxadiazol-4-ylsulfonyl)-N-[[3-[[4-(trifluoromethyl)phenyl]methoxy]phenyl]methyl]pyrrolidine-2-carboxamide] |
| 350 | O=C(NCc1cccc(OCc2ccc(C(F)(F)F)cc2)c1)[C@@H]1CC=CCN1S(=O)(=O)c1ccc(F)cc1 [Example 213, (2S)-1-(4-fluorophenyl)sulfonyl-N-[[3-[[4-(trifluoromethyl)phenyl]methoxy]phenyl]methyl]-3,6-dihydro-2H-pyridine-2-carboxamide] |
| 120 | O=C(NCc1cccc(OCc2ccc(C(F)(F)F)cc2)c1)[C@@H]1[C@H]2CC[C@H](C2)N1S(=O)(=O)c1ccc(F)cc1 [Example 214, (1S,2S,4R)-3-(4-fluorophenyl)sulfonyl-N-[[3-[[4-(trifluoromethyl)phenyl]methoxy]phenyl]methyl]-3-azabicyclo[2.2.1] heptane-2-carboxamide] |
| 110 | O=C(NCc1cccc(OCc2ccc(C(F)(F)F)cc2)c1)[C@@H]1[C@H]2CC[C@H](C2)N1S(=O)(=O)c1ccsc1 [Example 215, (1S,2S,4R)-3-(3-thienylsulfonyl)-N-[[3-[[4-(trifluoromethyl)phenyl]methoxy]phenyl]methyl]-3-azabicyclo[2.2.1]heptane-2-carboxamide] |
| 60 | O=C(NCc1cccc(OCc2ccc(C(F)(F)F)cc2)c1)[C@@H]1CCCN1S(=O)(=O)c1ccncc1 [Example 216, (2S)-1-(4-pyridylsulfonyl)-N-[[3-[[4-(trifluoromethyl)phenyl]methoxy]phenyl]methyl]pyrrolidine-2-carboxamide] |
| 940 | O=C(NCc1cccc(OCc2ccc(C(F)(F)F)cc2)c1)[C@@H]1CCCN1S(=O)(=O)c1cncs1 [Example 217, (2S)-1-thiazol-5-ylsulfonyl-N-[[3-[[4-(trifluoromethyl)phenyl]methoxy]phenyl]methyl]pyrrolidine-2-carboxamide] |
| 830 | O=C(NCc1cccc(OCc2ccc(C(F)(F)F)cc2)c1)[C@@H]1CCCN1S(=O)(=O)c1cscn1 [Example 218, (2S)-1-thiazol-4-ylsulfonyl-N-[[3-[[4-(trifluoromethyl)phenyl]methoxy]phenyl]methyl]pyrrolidine-2-carboxamide] |
| 120 | O=C(NCc1cccc(OCc2ccc(C(F)(F)F)cc2)c1)[C@@H]1CCCN1S(=O)(=O)c1nc2ccccc2s1 [Example 219, (2S)-1-(1,3-benzothiazol-2-ylsulfonyl)-N-[[3-[[4-(trifluoromethyl)phenyl]methoxy]phenyl]methyl]pyrrolidine-2-carboxamide] |
| 190 | O=C(NCc1cccc(OCc2ccc(C(F)(F)F)cc2)c1)[C@@H]1CCCN1S(=O)(=O)n1ccnc1 [Example 220, (2S)-1-imidazol-1-ylsulfonyl-N-[[3-[[4-(trifluoromethyl)phenyl]methoxy]phenyl]methyl]pyrrolidine-2-carboxamide] |
